In patent publication US9631096B2, “Dye compositions, methods of preparation, conjugates thereof, and methods of use” (CORNELL UNIVERSITY, priority 2012, dated 2017):

Assays:
[1] = Single-molecule FRET with donor and acceptor dyes on ribosomal proteins S13 and L1; format: physicochemical, E. coli; details: ribosome S13/L1 labels, 532 nm excitation, same day and conditions, FIG. 12
Source text: In this study, donor and acceptor fluorophores are attached to two ribosomal proteins (S13 small subunit; L1 large subunit, respectively).
Ribosomal protein S13 was PCR cloned from E. coli strain K12 genomic DNA into the pPROEX HTb vector with a TEV-protease-cleavable histidine (His)6 tag and a 12-residue peptide encoding the S6 epitope for the Sfp phosphopantetheinyl transferase reaction (amino acid sequence, [sequence]) fused at the N terminus (N-Sfp). {Yin, J., Lin, A. J., Golan, D. E. & Walsh, C. […] 1, 280-285 (2006)} After transformation of this plasmid into an E. coli ΔS13 knockout strain, cells were cultured and ribosomes were harvested as previously described. {Wang, L., Altman, R. B. & Blanchard, S. C. […]
Single-molecule FRET experiments were performed at room temperature in Tris-polymix with 5 mM Mg2+ buffer, as previously described {Wang, L., Altman, R. B. & Blanchard, S. C. […] The smFRET data were acquired by directly exciting the Cy3 fluorophore at 532 nm (LaserQuantum) while the Cy3 and Cy5 intensities were simultaneously recorded in Metamorph (Molecular Devices) with a 40-ms integration time. The data were analyzed in MATLAB (MathWorks) and plotted in Origin (OriginLab), as previously described. {Munro, J. B., Altman, R. B., O'Connor, N. & Blanchard, S. C.

[2] = Single-molecule TIRF fluorescence imaging of dye-labeled duplex DNA (photostability); format: physicochemical
Procedure: Each DNA strand was individually labeled with a single, NHS-activated “self-healing” fluorophore and hybridized to a complementary strand. Purified duplexes were used for single-molecule experiments.
All experiments were performed using a laboratory built, prism-based TIRE apparatus. Biotinylated DNA molecules were immobilized via a biotin-streptavidin interaction within microfluidic channels constructed on quartz slides. Fluorescence from surface-immobilized molecules, illuminated via the evanescent wave generated by total internal reflection of a 640 nm laser source, was collected using a water-immersion objective and imaged onto a EMCCD camera. […]
The photophysical properties of fluorophores were analyzed using automated software built in-house using Matlab. To extract kinetic parameters of blinking and photobleaching, the fluorescence traces were normalized to the mean fluorescence intensity of each dataset and idealized using the SKM algorithm and a 3-state model with one fluorescent (on) state, a transient dark state (blinking) and a permanent dark state (photobleaching). Time on (τon) was calculated by fitting the cumulative distribution to an exponential function.
By tracking the fluorescence of individual molecules over time, the intensity and duration of fluorescence, as well as the kinetics of blinking and photobleaching could be quantified. […]

[3] = Laser flash photolysis (time-resolved transient absorption) of Cy5 derivatives with benzophenone sensitizer; format: physicochemical; details: for lifetime of the 700 nm transient: acetonitrile, BP 5 mM, Cy5 22 μM
Source text: This experiment examined whether enhanced photostability of the Cy5 fluorophore, when covalently linked to protective agents (COT, NBA or Trolox) (Chart 1) can be specifically attributed to a triplet state quenching mechanism using laser flash photolysis (time-resolved transient absorption spectroscopy).
Because the formation of triplet states of Cy5 is inefficient (triplet quantum yield <0.003) upon direct excitation, a triplet sensitizer was employed to more efficiently populate the Cy5 triplet state (^3Cy5*) through an energy transfer mechanism (eq 1).
Deoxygenated acetonitrile solutions containing BP and Cy5 were irradiated with light pulses from a Nd-YAG laser at 355 nm (5 ns pulse width) to generate transient absorption kinetic traces across the visible spectrum. From these traces, transient absorption spectra at different times after the laser pulse were constructed (FIG. 3). Directly after the laser pulse the spectrum is dominated by the triplet absorption of BP, which is known to show a peak at 525 nm. […] Assignment of this new transient at 700 nm as the triplet state absorption of Cy5 was subsequently confirmed by performing quenching studies in the presence of a small amount of oxygen (0.45 mM; generated by bubbling the acetonitrile solution with a gas mixture of 5% O2 and 95% N2).
In addition to different protective agents (COT, NBA and Trolox), the length of the spacer between Cy5 and the protective agent was also varied. Laser flash photolysis experiments in argon-saturated acetonitrile solutions using BP as the sensitizer were performed on each of the Cy5 derivatives. […] The initial growth in transient absorption is caused by the energy transfer process from ^3BP* to the Cy5 chromophore analog in eq 1, which is then followed by the decay of the Cy5 triplet state. The concentrations of the Cy5 derivatives were optimized in order to ensure accurate triplet lifetime determination. […]

[4] = cited from earlier work

SMILES	brightness and duration of donor and acceptor fluorescence / quality of FRET data [1]	time period of fluorescence before blinking or photobleaching (visual inspection of traces) ([2]; individual fluorescence traces, dye on double stranded DNA, 641 nm)	Average number of photons (10^4 photons) detected before photobleaching or blinking ([2]; single-molecule measurements, dye on duplex DNA, TIRF, 641 nm illumination, deoxygenated solution)	τtriplet (triplet lifetime) ([3]; deoxygenated acetonitrile, BP sensitizer, 355 nm pulse, triplet absorption at 700 nm)	lifetime of the 700 nm transient ([3]; in the absence of O2 (argon purged))	lifetime of the 700 nm transient ([3]; in the presence of O2 (0.45 mM; 5% O2/95% N2))	quantum yield ([4]; fluorescence)	triplet quantum yield ([4]; upon direct excitation)
CCN1C(=CC=CC2=[N+](CCCCCC(=O)O)c3ccc(S(=O)(=O)O)cc3C2(C)C)C(C)(C)c2cc(S(=O)(=O)[O-])ccc21 [Cy3]	short-lived and are noisy and relatively difficult to analyze	–	–	–	–	–	–	–
CCN1/C(=C/C=C/C=C/C2=[N+](CCCCCC(=O)O)c3ccc(S(=O)(=O)O)cc3C2(C)C)C(C)(C)c2cc(S(=O)(=O)[O-])ccc21 [Cy5]	short-lived and are noisy and relatively difficult to analyze	shortest	2.1 ± 0.1 10^4 photons	63 ± 3 μs	~22 μs	1.7 μs	approximately 0.3	< 0.003
